From US12692477B2, “Medium composition for culturing porcine pluripotent stem cells” (SPACE F CORP., priority 2018, dated 2026)

Tests used:
[1] = test system: porcine pluripotent stem cells; experiment: Influence of growth factor concentration in porcine pluripotent stem cell culture medium; assay type: cell-based; conditions: for Optimal concentration / optimal concentration: in culture medium
Method: The influence of a growth factor concentration in a porcine pluripotent stem cell culture medium established in the above-described example was analyzed, and the results are shown in Table 10. When the concentration of growth factors was low, the growth of stem cells was reduced, and when the concentration of growth factor was high, except for bFGF, cells were killed. The allowable concentration of the bFGF was 3.03×10^−4 to 6.06×10^−3 μM, and the optimal concentration was 1.21×10^−3 μM. The allowable concentration of the Activin A was 1.50×10^−4 to 5.40×10^−4 μM, and the optimal concentration was 3.85×10^−4 μM. The allowable concentration of the CHIR99021 was 0.5 to 2.50 μM, and the optimal concentration was 1.50 μM. The allowable concentration of the IWR-1 was 1.20 to 3.00 μM, and the optimal concentration was 2.50 μM.

[2] = test system: porcine blastocysts (inner cell mass); experiment: Culture of porcine blastocysts on feeder cells with signal molecule combinations in serum replacement medium; assay type: cell-based
Method: First, a culture medium including KSR, N2/B27, KSR+N2/B27, or KSR+LC was used to find a serum replacement suitable for the growth of porcine embryos. […] As a result, it was confirmed that the inner cell mass expressing SOX2 rapidly grew in the group treated with KSR and KSR+LC (FIG. 1). Second, for long-term culturing of the inner cell mass, signal molecules were treated in various combinations (Table 6 and Table 7).
The culturing was attempted by adding signal molecules to basal medium including KSR or KSR+LC. Porcine embryonic stein cells were established in a culture medium including FGF2, A, and 6-[[2-[[4-(2,4-Dichlorophenyl)-5-(5-methyl-1H-imidazol-2-yl)-2-pyrimidinyl]amino]ethyl]amino]-3-pyridinecarbonitrile (CHIR99021) in a culture solution including serum replacement 4 (Tables 6 and 7, FIG. 2). In addition, for the stabilization of CHIR99021, 4-(1,3,3a,4,7,7a-Hexahydro-1,3-dioxo-4,7-methano-2H-isoindol-2-yl)-N-8-quinolinyl-Benzamide (IWR-1) was added to establish the composition for long-term culturing and maintenance of porcine embryonic stem cells, as shown in Table 8 and Table 9, respectively.

Cc1cnc(-c2cnc(NCCNc3ccc(C#N)cn3)nc2-c2ccc(Cl)cc2Cl)[nH]1 [CHIR99021, 6-[[2-[[4-(2,4-Dichlorophenyl)-5-(5-methyl-1H-imidazol-2-yl)-2-pyrimidinyl]amino]ethyl]amino]-3-pyridinecarbonitrile, reference compound]
Optimal concentration [1]: 0.0015 mM | optimal concentration [1]: 1.50 µM

O=C(Nc1cccc2cccnc12)c1ccc(N2C(=O)C3C4C=CC(C4)C3C2=O)cc1 (stereo not drawn) [IWR-1, 4-(1,3,3a,4,7,7a-Hexahydro-1,3-dioxo-4,7-methano-2H-isoindol-2-yl)-N-8-quinolinyl-Benzamide, reference compound]
Optimal concentration [1]: 0.0025 mM | optimal concentration [1]: 2.50 µM

bFGF: basic fibroblast growth factor, signal molecule in the culture medium
Blastocyst initial growth rate (%) ([2]; serum replacement 1): 30.0 ± 5.8% | Sox2 positive rate of the initial population (%) ([2]; serum replacement 1): 30.0 ± 5.8% | Number of embryonic stem cell lines established in the long-term culture ([2]; serum replacement 1, 30 blastocysts): 0 | Blastocyst initial growth rate (%) ([2]; serum replacement 4): 51.5 ± 4.6% | Sox2 positive rate of the initial population (%) ([2]; serum replacement 4): 44.8 ± 2.9% | Number of embryonic stem cell lines established in the long-term culture ([2]; serum replacement 4, 29 blastocysts): 0 | Optimal concentration [1]: 1.21e-06 mM | optimal concentration [1]: 0.00121 µM

B1: activin A: activin A, signal molecule acting through the SMAD signal transduction system (protein, UniProt P08476 311-426, looked up)
Inhibin beta A chain: GLECDGKVNICCKKQFFVSFKDIGWNDWIIAPSGYHANYCEGECPSHIAGTSGSSLSFHSTVINHYRMRGHSPFANLKSCCVPTKLRPMSMLYYDDGQNIIKKDIQNMIVEECGCS
Symptoms when exceeding the appropriate concentration [1]: Cell death | Optimal concentration [1]: 3.85e-07 mM | optimal concentration [1]: 0.000385 µM
